Measurements as given in patent publication US9758502B2, “Dihydropyrone compounds and herbicides comprising the same” (SUMITOMO CHEMICAL COMPANY, LIMITED, priority 2012, dated 2017).

Test system: Echinochloa crus-galli
Assay: Test 1-1 Post-emergence Treatment Test
Assay type: in vivo
Conditions: sprayed on whole plants at 1-2 leaf stages, treatment amount 1,000 g/10,000 m^2, after 20 days of the treatment, greenhouse
Description: Here an efficacy for controlling weeds on the present compound was visually observed and evaluated in 11 criteria of 0 to 10 (0 represents no action, 10 represents complete death and the intermediate efficacy were evaluated in 1 to 9 criteria).
Commercial soil for propagation was put in a pot measuring 8 cm in diameter and 6.5 cm in height, and in the pot, seeds of Echinochloa crus-galli were sown, and then covered with soil of about 0.5 cm thickness and the plants were grown in a greenhouse. When the plants were grown to 1-2 leaf stages, a predetermined amount of a chemical diluted solution containing a compound (1-1) was uniformly spayed on the whole plants. Here the chemical diluted solution was prepared by dissolving a predetermined amount of the compound (1-1) in dimethylformamide solution containing 2% of Tween 20 (polyoxyetylene sorbitan fatty acid ester) (manufactured by MP Biomedicals Inc.) and then diluting the solution with deionized water. After spraying, plants were grown in a greenhouse and after 20 days of the treatment, the efficacy for Echinochloa crus-galli was observed and the controlling effect was evaluated.
Similarly, the present compounds (1-2) to (1-11) and (1-13) were also tested.

CCc1cc(C)cc(CC)c1C1=C(O)CC(C(C)CS(=O)(=O)c2ccc(C(F)(F)F)cn2)OC1=O (stereo not shown) [(1-13)]
efficacy for controlling weeds (visually observed, 11 criteria of 0 to 10): ≥ 9
